Experimental data taken from ChEMBL document CHEMBL1201862, “PubChem BioAssay data set” (2004).
Values belong to the compound of their own block, whether it stands above or below them. The source made the active and inactive calls.

Columns and labels:
Protein skinhead-1 = molecular target: T1, Protein skinhead-1 (Caenorhabditis elegans, UniProt P34707); format: functional
T1 sequence (P34707 whole entry): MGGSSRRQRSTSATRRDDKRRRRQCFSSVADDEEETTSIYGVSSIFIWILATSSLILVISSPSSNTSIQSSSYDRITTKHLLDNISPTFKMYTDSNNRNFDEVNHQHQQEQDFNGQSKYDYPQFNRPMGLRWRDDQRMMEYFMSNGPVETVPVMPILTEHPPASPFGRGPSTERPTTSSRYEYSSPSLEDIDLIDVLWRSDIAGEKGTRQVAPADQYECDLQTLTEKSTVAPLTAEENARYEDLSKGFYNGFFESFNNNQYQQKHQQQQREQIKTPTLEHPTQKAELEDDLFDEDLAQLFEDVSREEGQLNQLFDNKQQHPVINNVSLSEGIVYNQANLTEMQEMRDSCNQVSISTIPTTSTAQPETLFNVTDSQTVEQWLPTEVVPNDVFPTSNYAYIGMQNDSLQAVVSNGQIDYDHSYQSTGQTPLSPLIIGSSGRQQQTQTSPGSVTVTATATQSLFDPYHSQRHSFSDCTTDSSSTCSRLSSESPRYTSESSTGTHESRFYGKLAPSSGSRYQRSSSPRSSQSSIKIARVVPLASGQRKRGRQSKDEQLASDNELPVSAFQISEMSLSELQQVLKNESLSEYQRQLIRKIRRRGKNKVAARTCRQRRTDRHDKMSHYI

[1] = molecular target: T2, Polyadenylate-binding protein 1 (Homo sapiens, UniProt P11940); assay: MLLE binding blockers, Cy5 peptide tracer – biochemical, fluorescence polarization, Cy5-PAM2 peptide, secondary, miRNA deadenylation inhibitor project, dose response (AID 602260); format: functional; settings: read-out: IC50_Mean
T2 sequence (P11940 whole entry, the tested form may be a part): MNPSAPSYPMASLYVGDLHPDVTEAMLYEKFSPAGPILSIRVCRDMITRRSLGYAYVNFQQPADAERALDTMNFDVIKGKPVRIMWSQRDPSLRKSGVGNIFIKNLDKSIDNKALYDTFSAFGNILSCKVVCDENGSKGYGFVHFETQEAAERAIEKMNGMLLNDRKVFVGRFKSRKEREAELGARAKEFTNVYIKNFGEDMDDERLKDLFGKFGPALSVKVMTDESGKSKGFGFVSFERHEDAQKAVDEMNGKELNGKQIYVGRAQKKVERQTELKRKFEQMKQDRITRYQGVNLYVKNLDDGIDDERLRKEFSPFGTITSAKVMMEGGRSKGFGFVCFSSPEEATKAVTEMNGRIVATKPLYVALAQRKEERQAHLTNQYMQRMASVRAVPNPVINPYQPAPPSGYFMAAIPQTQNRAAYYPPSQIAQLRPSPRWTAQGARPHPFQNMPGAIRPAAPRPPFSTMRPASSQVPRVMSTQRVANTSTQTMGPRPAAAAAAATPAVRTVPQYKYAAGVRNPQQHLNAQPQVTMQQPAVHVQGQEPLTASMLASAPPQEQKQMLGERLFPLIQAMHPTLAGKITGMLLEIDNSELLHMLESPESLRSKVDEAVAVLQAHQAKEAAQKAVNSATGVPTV

[2] = molecular target: T2, Polyadenylate-binding protein 1; assay: MLLE domain peptide-binding blockers, IC50 – biochemical, fluorescence polarization, FITC-PAM2 peptide, dose response (AID 602259); format: functional; settings: read-out: IC50_Mean
[3] = molecular target: T3, Heat shock factor protein 1 (Mus musculus, UniProt P38532); assay: enhancement of HSF1-driven luciferase signal – cell-based, NIH3T3, luminescence, dose retest, confirmation (AID 435004); format: functional;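 also: stress induced by proteasome inhibitor MG132 added 30 min after compound; luciferase reporter driven by HSF1 response element in NIH3T3 cells; actives raise luminescence as potentiators of the MG132 stress response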
T3 sequence (P38532 whole entry): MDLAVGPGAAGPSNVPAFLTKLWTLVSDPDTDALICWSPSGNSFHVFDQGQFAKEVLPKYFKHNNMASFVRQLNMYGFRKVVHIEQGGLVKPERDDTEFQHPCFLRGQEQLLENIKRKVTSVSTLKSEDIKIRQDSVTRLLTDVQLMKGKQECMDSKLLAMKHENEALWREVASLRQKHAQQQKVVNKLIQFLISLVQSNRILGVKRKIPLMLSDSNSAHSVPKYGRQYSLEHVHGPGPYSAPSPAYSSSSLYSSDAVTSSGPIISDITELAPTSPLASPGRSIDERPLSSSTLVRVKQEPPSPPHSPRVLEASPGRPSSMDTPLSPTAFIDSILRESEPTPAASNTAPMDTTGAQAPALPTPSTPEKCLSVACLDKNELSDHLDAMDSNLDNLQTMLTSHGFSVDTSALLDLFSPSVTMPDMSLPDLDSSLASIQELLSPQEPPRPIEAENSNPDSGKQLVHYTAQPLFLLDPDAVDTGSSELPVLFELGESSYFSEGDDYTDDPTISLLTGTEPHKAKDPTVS

[4] = NIH-3T3 fibroblast cytotoxicity, dose response, cytotoxicity control, cell-based, fluorescence, Alamar Blue, secondary assay (AID 2327); format: functional;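 also: NIH-3T3 mouse fibroblasts cultured with fluconazole at 8 µg/mL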
[5] = fluconazole-exposed Candida albicans growth modulators – fluorescence, retest, confirmation (AID 2467); format: functional, cell-based
Large T antigen = Large T antigen (Simian virus 40, UniProt P03070); format: functional, Betapolyomavirus macacae;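 also: Confirmatory-stage PubChem screen for compounds that inhibit SV40 T antigen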
Sequence of Large T antigen (P03070 whole entry): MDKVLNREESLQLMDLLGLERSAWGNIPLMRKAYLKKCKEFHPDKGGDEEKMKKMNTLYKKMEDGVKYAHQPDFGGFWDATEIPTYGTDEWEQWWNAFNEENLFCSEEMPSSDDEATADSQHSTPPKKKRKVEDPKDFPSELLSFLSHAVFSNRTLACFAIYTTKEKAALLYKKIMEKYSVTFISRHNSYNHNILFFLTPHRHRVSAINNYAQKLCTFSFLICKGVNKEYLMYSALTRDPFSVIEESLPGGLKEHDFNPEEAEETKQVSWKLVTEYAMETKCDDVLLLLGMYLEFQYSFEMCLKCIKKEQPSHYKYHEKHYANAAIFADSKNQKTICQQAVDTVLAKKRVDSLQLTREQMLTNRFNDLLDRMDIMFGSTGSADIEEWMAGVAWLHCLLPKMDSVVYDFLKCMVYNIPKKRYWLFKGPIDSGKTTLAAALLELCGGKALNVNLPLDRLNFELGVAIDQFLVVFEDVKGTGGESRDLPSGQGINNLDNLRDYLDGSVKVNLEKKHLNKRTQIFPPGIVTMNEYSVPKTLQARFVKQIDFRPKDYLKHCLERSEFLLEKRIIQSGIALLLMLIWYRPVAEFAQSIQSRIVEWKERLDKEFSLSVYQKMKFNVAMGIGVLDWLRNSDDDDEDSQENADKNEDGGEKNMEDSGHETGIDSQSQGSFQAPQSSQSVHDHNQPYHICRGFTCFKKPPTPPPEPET

[6] = molecular target: T4, Rac GTPase-activating protein 1 (Homo sapiens, UniProt Q9H0H5); assay: blockers of MgcRacGAP-driven Rac1 GTP hydrolysis – biochemical, ADP Hunter fluorescence, primary and confirmatory, confirmation (AID 624330); format: functional
T4 sequence (Q9H0H5 whole entry): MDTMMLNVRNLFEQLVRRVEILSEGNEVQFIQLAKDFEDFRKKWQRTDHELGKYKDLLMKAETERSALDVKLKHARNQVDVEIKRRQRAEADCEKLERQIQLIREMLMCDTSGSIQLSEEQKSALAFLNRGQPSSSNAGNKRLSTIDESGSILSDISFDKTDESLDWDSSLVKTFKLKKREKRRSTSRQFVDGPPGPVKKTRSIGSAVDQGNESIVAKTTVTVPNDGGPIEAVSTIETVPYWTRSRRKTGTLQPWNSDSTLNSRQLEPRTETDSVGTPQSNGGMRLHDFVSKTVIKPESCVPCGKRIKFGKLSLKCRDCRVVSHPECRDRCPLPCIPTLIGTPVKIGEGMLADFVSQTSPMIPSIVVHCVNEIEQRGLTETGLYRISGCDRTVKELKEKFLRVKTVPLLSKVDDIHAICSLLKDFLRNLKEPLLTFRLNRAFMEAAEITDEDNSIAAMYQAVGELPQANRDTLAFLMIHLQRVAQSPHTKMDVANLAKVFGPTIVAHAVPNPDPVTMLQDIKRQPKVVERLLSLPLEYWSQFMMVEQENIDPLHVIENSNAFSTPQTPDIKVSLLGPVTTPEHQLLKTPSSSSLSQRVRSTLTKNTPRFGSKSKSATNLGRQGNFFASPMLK

cells [7] = format: functional, cell-based
cells [8] = format: functional, cell-based; remark: listed apart in the source

IC50 (Protein skinhead-1): > 100 µM (inactive)
Structure (SMILES): CS(=O)(=O)N1N=C(c2cccs2)CC1c1ccccc1O (stereo not drawn)

IC50 [1]: > 66 µM (inactive)
IC50 [2]: > 66 µM (inactive)
Structure (SMILES): CCNC(=O)c1sc(=S)n(-c2ccc(C)cc2)c1N

EC50 [3]: > 260 µM (inactive)
Structure (SMILES): CCN(CC)S(=O)(=O)c1ccc(N2CCOCC2)c(NC(=O)c2cc3ccccc3oc2=O)c1

Structure (SMILES): O=C(COc1ccc2c(c1)CCC2)N1CCN(c2cccc(C(F)(F)F)c2)CC1
EC50 [4]: > 160 µM (inactive)
EC50 [5]: > 38 µM (not active)

EC50 [3]: > 260 µM (inactive)
Structure (SMILES): O=C(C1=C(O)C(=O)N(Cc2cccnc2)C1c1cccc(O)c1)c1ccc2c(c1)OCCO2 (stereo not drawn)

EC50 [3]: 29.3 µM (active)
Structure (SMILES): COc1cc(C2Nc3ccc4ncccc4c3C3=C2C(=O)CCC3)cc(OC)c1OC (stereo not drawn)

IC50 [1]: > 66 µM (inactive)
IC50 [2]: > 66 µM (inactive)
Structure (SMILES): Cc1c(NC(=S)NC(=O)c2cc3ccccc3o2)cccc1C(=O)O

Structure (SMILES): O=S1(=O)N=C(Nc2ccc(N3CCOCC3)cc2)c2ccccc21
EC50 [4]: > 160 µM (inactive)
EC50 [5]: > 38 µM (not active)

IC50 (Large T antigen): 11.3 µM (active)
IC50 [6]: 75 µM (active)
Structure (SMILES): O=C(C[n+]1ccccc1)NN=Cc1ccc(O)cc1

IC50 (Protein skinhead-1): > 100 µM (inactive)
Structure (SMILES): C#CCNC(=O)C1=C[C@@H](c2cn(C(C)=O)c3ccccc23)C[C@@H](OCCCCO)O1

IC50 (Protein skinhead-1): 23.7 µM (active)
Structure (SMILES): C=CCNc1nc(-c2ccc([N+](=O)[O-])cc2)cs1

IC50 [1]: > 66 µM (inactive)
IC50 [2]: > 66 µM (inactive)
Structure (SMILES): CCN1C(=O)/C(=C2\Sc3ccccc3N2CC)OC1=S

Structure (SMILES): COc1ccc(NC(=S)c2ccc(N(C)C)cc2)cc1
EC50 (cells [7]): > 350 µM (not active)
EC50 (cells [8]): 145 µM (active)
EC50 [3]: > 260 µM (inactive)

IC50 (Large T antigen): 12 µM (active)
Structure (SMILES): CN(C)c1ccc(-c2nc3cnccn3c2Nc2ccc3c(c2)OCCO3)cc1

EC50 [3]: > 260 µM (inactive)
Structure (SMILES): COc1ccc(/C=C2/SC(=O)N(CCNC(=O)C3COc4ccccc4O3)C2=O)cc1 (stereo not drawn)

EC50 [3]: 236 µM (active)
Structure (SMILES): S=C1N=C(c2ccccc2)NCN1c1ccc(Br)cc1

EC50 [3]: > 260 µM (inactive)
Structure (SMILES): Cc1oc(-c2ccoc2)nc1CN(CC1CCC(=O)N1)C(C)C (stereo not drawn)

Structure (SMILES): O=C(Nc1ccc(N=Nc2ccccc2)c(NC(=O)C2CCCO2)c1)C1CCCO1 (stereo not drawn)
EC50 [4]: > 160 µM (inactive)
EC50 [5]: > 38 µM (not active)

IC50 (Large T antigen): 58.2 µM (active)
Structure (SMILES): Cc1c(C(=O)Oc2ccc(-c3cnc4ccccc4n3)cc2)cccc1[N+](=O)[O-]
